Structures can show the parent of a compound that is named as a salt. Where only a bound is given, the exact number is not on record here.

This assay addresses T1, human SSAO (Homo sapiens, UniProt Q16853).
T1 construct: made in house
T1 sequence (Q16853 29-763 limits assumed): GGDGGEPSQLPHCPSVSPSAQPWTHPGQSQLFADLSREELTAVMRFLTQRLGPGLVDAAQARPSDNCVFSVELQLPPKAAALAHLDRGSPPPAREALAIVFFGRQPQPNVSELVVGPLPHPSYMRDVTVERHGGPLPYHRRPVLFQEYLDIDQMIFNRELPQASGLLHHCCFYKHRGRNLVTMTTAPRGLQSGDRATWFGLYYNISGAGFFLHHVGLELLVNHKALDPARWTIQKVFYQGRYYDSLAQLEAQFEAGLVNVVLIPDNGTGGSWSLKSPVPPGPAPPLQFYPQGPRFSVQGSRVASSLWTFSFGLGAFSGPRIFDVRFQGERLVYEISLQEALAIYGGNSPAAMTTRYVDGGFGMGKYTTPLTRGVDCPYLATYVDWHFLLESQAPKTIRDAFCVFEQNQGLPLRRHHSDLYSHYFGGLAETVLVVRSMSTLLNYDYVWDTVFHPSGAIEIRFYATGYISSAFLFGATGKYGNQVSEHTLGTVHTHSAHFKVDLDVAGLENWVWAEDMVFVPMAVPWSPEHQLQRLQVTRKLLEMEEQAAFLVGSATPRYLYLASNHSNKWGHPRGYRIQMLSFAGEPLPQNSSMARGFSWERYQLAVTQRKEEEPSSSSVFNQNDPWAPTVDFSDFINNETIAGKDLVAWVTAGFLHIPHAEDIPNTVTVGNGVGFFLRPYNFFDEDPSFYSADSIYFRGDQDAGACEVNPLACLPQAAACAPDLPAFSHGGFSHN
Description: SSAO inhibitory activity (HRP-coupled hydrogen peroxide detection or 14C-benzaldehyde detection, benzylamine substrate). The assay is classed as biochemical. To be noted: purified recombinantly expressed human SSAO, benzylamine as substrate, RT. The procedure:
All primary assays were performed at RT. with purified recombinantly expressed human SSAO. Enzyme was prepared essentially as described in Öhman et al. (Protein Expression and Purification 46 (2006) 321-331). In addition, secondary- and selectivity assays were performed using SSAO prepared from various tissues or purified rat recombinant SSAO. The enzyme activity was assayed with benzylamine as substrate by measuring either benzaldehyde production, using ^14C-labeled substrate, or by utilizing the production of hydrogen peroxide in a horseradish peroxidase (HRP) coupled reaction. Briefly, test compounds were dissolved in dimethyl sulfoxide (DMSO) to a concentration of 10 mM. Dose-response measurements were assayed by either creating 1:10 serial dilutions in DMSO to produce a 7 point curve or by making 1:3 serial dilutions in DMSO to produce 11 point curves. The top concentrations were adjusted depending on the potency of the compounds and subsequent dilution in reaction buffer yielded a final DMSO concentration ≦2%.
In a horseradish peroxidase (HRP) coupled reaction, hydrogen peroxide oxidation of 10-acetyl-3,7-dihydroxyphenoxazine produced resorufin, which is a highly fluorescent compound (Zhout and Panchuk-Voloshina. Analytical Biochemistry 253 (1997) 169-174; Amplex® Red Hydrogen Peroxideperoxidase Assay kit, Invitrogen A22188). Enzyme and compounds in 50 mM sodium phosphate, pH 7.4 were set to pre-incubate in flat-bottomed microtiter plates for approximately 15 minutes before initiating the reaction by addition of a mixture of HRP, benzylamine and Amplex reagent. Benzylamine concentration was fixed at a concentration corresponding to the Michaelis constant, determined using standard procedures. Fluorescence intensity was then measured at several time points during 1-2 hours, exciting at 544 nm and reading the emission at 590 nm. For the human SSAO assay final concentrations of the reagents in the assay wells were: SSAO enzyme 1 μg/ml, benzylamine 100 μM, Amplex reagent 20 μM, HRP 0.1 U/mL and varying concentrations of test compound. The inhibition was measured as % decrease of the signal compared to a control without inhibitor (only diluted DMSO). The background signal from a sample containing no SSAO enzyme was subtracted from all data points. Data was fitted to a four parameter logistic model and IC50 values were calculated using the Graph Pad Prism 4 or XLfit 4 programs.
SSAO activity was assayed using 14C-labeled benzylamine and analysed by measuring radioactive benzaldehyde. In a white 96-well optiplate (Packard), 20 μL of diluted test compound was pre-incubated at RT. with 20 μL SSAO enzyme for approximately 15 minutes with continuous agitation. All dilutions were made with PBS. The reaction was initiated by adding 20 μL of the benzylamine substrate solution containing [7-14C] Benzylamine hydrochloride (CFA589, GE Healthcare). The plate was incubated for 1 hour as above after which the reaction was stopped by acidification (10 μL 1 M HCl). Then 90 μL Micro Scint-E solution (Perkin-Elmer) was added to each well and the plate was continuously mixed for 15 minutes. Phase separation occurred instantly and activity was read in a Topcount scintillation counter (Perkin-Elmer). In the final reaction well, the human recombinant SSAO concentration was 10 μg/ml. In order to optimize sensitivity, the substrate concentration was decreased as compared to the HRP coupled assay in order to get a higher fraction of radioactive product. In the human SSAO assay, benzylamine concentration was 40 μM (0.2 μCi/mL). Data was analysed as above.
For the compound `Clc1ccc(-n2nc(NCCN3CCNCC3)c3ccncc32)cc1` [Compound 45, 1-(4-Chlorophenyl)-N-[2-(piperazin-1-yl)ethyl]-1H-pyrazolo[3,4-c]pyridin-3-amine], the IC50 lay in the range of 100 to 500 nM.
`CN1CCN(CCNc2nn(-c3ccc(Cl)cc3)c3cnccc23)CC1` [Compound 46, 1-(4-Chlorophenyl)-N-[2-(4-methylpiperazin-1-yl)ethyl]-1H-pyrazolo[3,4-c]pyridin-3-amine]: the IC50 lay in the range of 100 to 500 nM.
In the case of `Clc1ccc(-n2cc(C3CCN(C4CCNCC4)CC3)c3ccncc32)cc1` [Compound 2, 4-[1-(4-Chlorophenyl)-1H-pyrrolo[2,3-c]pyridin-3-yl]-1-(piperidin-4-yl)piperidine], the IC50 lay within 100 to 500 nM.
On to `CN1CCN(C)C(CNC(=O)N2CCC(c3cn(-c4ccc(Cl)cc4)c4cnccc34)CC2)C1` (centres unmarked) [Compound 21, 4-[1-(4-Chlorophenyl)-1H-pyrrolo[2,3-c]pyridin-3-yl]-N-[(1,4-dimethyl-piperazin-2-yl)methyl] piperidine-1-carboxamide], for which the IC50 was under 100 nM.
As for `O=C(CC1CCNCC1)N1CCC(c2cn(-c3ccc(Cl)cc3)c3cnccc23)CC1` [Compound 4, 1-{4-[1-(4-Chlorophenyl)-1H-pyrrolo[2,3-c]pyridin-3-yl]piperidin-1-yl}-2-(piperidin-4-yl)ethan-1-one], the IC50 was under 100 nM.
For the compound `O=C(NCC1CCNCC1)C1CCN(c2nn(-c3ccc(Cl)cc3)c3cnccc23)CC1` [Compound 47, 1-[1-(4-Chlorophenyl)-1H-pyrazolo[3,4-c]pyridin-3-yl]-N-(piperidin-4-ylmethyl)piperidine-4-carboxamide dihydrochloride], the IC50 is 100 to 500 nM.
On to `O=C(NCCN1CCOCC1)N1CCC(c2cn(-c3ccc(Cl)cc3)c3cnccc23)CC1` [Compound 22, 4-[1-(4-Chlorophenyl)-1H-pyrrolo[2,3-c]pyridin-3-yl]-N-[2-(morpholin-4-yl)ethyl]piperidine-1-carboxamide], for which the IC50 was under 100 nM.
With `NC(=O)NCC1CN(c2nn(-c3ccc(Cl)cc3)c3cnccc23)CCO1` (centres unmarked) [Compound 59, ({4-[1-(4-Chlorophenyl)-1H-pyrazolo[3,4-c]pyridin-3-yl]morpholin-2-yl}methyl)urea] the figure was under 100 nM.
As to `COCCN1CCN(C(=O)N2CCC(c3cn(-c4ccc(Cl)cc4)c4cnccc34)CC2)CC1` [Compound 18, 1-({4-[1-(4-Chlorophenyl)-1H-pyrrolo[2,3-c]pyridin-3-yl]piperidin-1-yl}carbonyl)-4-(2-methoxyethyl) piperazine], the IC50 is under 100 nM.
With `Clc1ccc(-n2cc(C3CCN(C4CCNC4)CC3)c3ccncc32)cc1` (centres unmarked) [Compound 1, 4-[1-(4-Chlorophenyl)-1H-pyrrolo[2,3-c]pyridin-3-yl]-1-(pyrrolidin-3-yl)piperidine], the IC50 was under 100 nM.
Consider `CN1CCN(CCC2COCCN2c2nn(-c3ccc(Cl)cc3)c3cnccc23)CC1` (centres unmarked) [Compound 42, 4-[1-(4-Chlorophenyl)-1H-pyrazolo[3,4-c]pyridin-3-yl]-3-[2-(4-methylpiperazin-1-yl)ethyl]morpholine], for which the half-maximal inhibitory concentration (IC50) is under 100 nM.
Regarding `CN1CCN(CCNC(=O)N2CCC(c3cn(-c4ccc(Cl)cc4)c4cnccc34)CC2)CC1` [Compound 25, 4-[1-(4-Chlorophenyl)-1H-pyrrolo[2,3-c]pyridin-3-yl]-N-[2-(4-methylpiperazin-1-yl)ethyl] piperidine-1-carboxamide], the IC50 was under 100 nM.
Turning to `Clc1ccc(-n2nc(NCCN3CCOCC3)c3ccncc32)cc1` [Compound 44, 1-(4-Chlorophenyl)-N-[2-(morpholin-4-yl)ethyl]-1H-pyrazolo[3,4-c]pyridin-3-amine], the IC50 lay in the range of 500 to 2500 nM.
With `Clc1ccc(-n2cc(C3CCN(CC4CCNCC4)CC3)c3ccncc32)cc1` [Compound 3, 4-[1-(4-Chlorophenyl)-1H-pyrrolo[2,3-c]pyridin-3-yl]-1-(piperidin-4-ylmethyl) piperidine] the figure was 100 to 500 nM.
For `CC(=O)OC1CCN(c2nn(-c3ccc(C)cc3)c3cnccc23)CC1` [Compound 52, 1-[1-(4-Methylphenyl)-1H-pyrazolo[3,4-c]pyridin-3-yl]piperidin-4-yl acetate], the IC50 was under 100 nM.
With `NC(=O)CN1CCC(CNC(=O)N2CCC(c3cn(-c4ccc(Cl)cc4)c4cnccc34)CC2)CC1` [Compound 14, N-{[1-(Carbamoyl-methyl)piperidin-4-yl]methyl}-4-[1-(4-chlorophenyl)-1H-pyrrolo[2,3-c]pyridin-3-yl] piperidine-1-carboxamide; formic acid] the figure was under 100 nM.
As for `O=C(NC1CCNCC1)N1CCC(c2cn(-c3ccc(Cl)cc3)c3cnccc23)CC1` [Compound 7, 4-[1-(4-Chlorophenyl)-1H-pyrrolo[2,3-c]pyridin-3-yl]-N-(piperidin-4-yl) piperidine-1-carboxamide], the IC50 was under 100 nM.
`O=C(NCc1nn[nH]n1)N1CCC(c2cn(-c3ccc(Cl)cc3)c3cnccc23)CC1` [Compound 61, 4-[1-(4-Chlorophenyl)-1H-pyrrolo[2,3-c]pyridin-3-yl]-N-(2H-1,2,3,4-tetrazol-5-ylmethyl)piperidine-1-carboxamide; trifluoroacetic acid]: the IC50 was under 100 nM.
As to `Clc1ccc(-n2nc(N3CCC(CNCC4CCNCC4)CC3)c3ccncc32)cc1` [Compound 50, ({1-[1-(4-Chlorophenyl)-1H-pyrazolo[3,4-c]pyridin-3-yl]piperidin-4-yl}methyl)(piperidin-4-ylmethyl)amine], the IC50 fell in the range of 100 to 500 nM.
`O=C(NCCCN1CCOCC1)N1CCC(c2cn(-c3ccc(Cl)cc3)c3cnccc23)CC1` [Compound 26, 4-(1-(4-Chlorophenyl)-1H-pyrrolo[2,3-c]pyridin-3-yl]-N-[3-(morpholin-4-yl)propyl] piperidine-1-carboxamide]: the IC50 is under 100 nM.

As a reminder, the IC50 is the concentration that inhibits the measured activity by half.

(Values after patent publication US20140275063A1, “NEW ENZYME INHIBITOR COMPOUNDS” (PROXIMAGEN LIMITED, priority 2011, published 2014).)
